The results in this text go back to patent US20190248834A1, “ENDOMORPHIN-2, TETRAPEPTIDE DERIVATIVES THEREOF, AND USES THEREOF” (priority 2016, published 2019).

Non-standard residues stand in square brackets, D forms with d. pGlu = O=C1CC[C@@H](C(=O)O)N1 Some results are limits rather than exact numbers.

Holding throughout (assay type): in vivo, human
One test relates to hallux valgus (bunion). Kind of test: Example 26: analgesic effect on painful inflammation of hallux valgus, topical. The source says: A subject had hallux valgus of the right 1st metatarsal-proximal phalangeal joint for a duration of 5-6 years. Pain in the joint was episodic and associated with inflammation. […] A second application of the solution was made that evening, even though there was no pain. […] Such improvement lasted over the next 2 weeks.

The next test deals with knee pain. Put plainly: Example 42: analgesic effect on knee pain following twisting of leg, topical. The note with it: 1% (w/v) in WEP442, topical. The source says: A subject, twisted their left leg during work on building construction, causing substantial pain in the left knee. The pain persisted into the late evening, preventing them from falling asleep.
In a further test the test system is severe frontal headaches. Put plainly: Example 47: analgesic effect on severe headaches, topical. The source says: A subject had severe frontal headaches occurring every 5-10 days.
Another test has as its system pain at injection sites. Put plainly: Example 39: analgesic effect on pain at site of subcutaneous injection of hyaluronic acid, topical. The following applies: 1% (w/v) in WEP442, topical. The source says: A subject, experienced substantial pain in the zygomatic-facial areas, sites injected subcutaneously with a hyaluronic acid product (Restylane) six hours earlier for the cosmetic purpose of plumping up the skin.

For test [1], the system named is severe migraine headaches. Put plainly: Example 41: analgesic effect on migraine headaches, topical. The source says:
A subject with severe migraine headaches associated with nausea and vomiting that had been occurring 3-4 times per month over the past 9-10 years, topically applied a composition containing 1% (w/v) of N-Ac-Tyr-Pro-Phe-Phe-NH2 (SEQ ID NO: 23) in WEP442 to the forehead, brow, eyelids and temporal areas at the onset of headaches. […] The frequency of episodes diminished over the next two months, and the subject reported that they experienced no headaches for at least a 5 week period.

In the next test the test system is TMJ syndrome pain. Put plainly: Example 41: analgesic effect on TMJ pain, topical. The note with it: 0.5% (w/v) in WEP442, topical. The source says: The same subject, also suffered pain from TMJ syndrome involving the left side joint for about 6 years. Attempts to alleviate the pain, e.g. cushioning mouth pieces worn during the night, failed. […] Increasing longer periods of relief have occurred over 5-6 weeks. They have reported that there was no more pain in the affected joint over a period of about one month.

Test [2] relates to severe osteoarthritis of both knees. Put plainly: Example 17: analgesic effect on osteoarthritic knees, sublingual powder. The following applies: powder 50 mg under the tongue. The method, then: A subject had severe osteoarthritis of both knees with pain, inflammation and edema for four years. The subject underwent prior therapy, including intra-articular injections of corticosteroids and hyaluronic acid as well as celecoxib (Celebrex), administered orally (200 mg) twice daily. Such therapy provided only mild transitory relief of knee pain and edema, and edema of the lower legs.
The subject administered N-Pg-Tyr-Pro-Phe-Phe-NH2 (SEQ ID NO: 44) powder (50 mg) under the tongue (sublingually), which dissolved in saliva and absorbed slowly for about 30 minutes. […] The analgesic effect lasted for about 2 hours. The analgesic effect was judged to be about 4+ by clinical evaluation.
Under the same conditions, N-Pa-Tyr-Pro-Phe-Phe-NH2 (SEQ ID NO: 64) powder provided an analgesic effect of about 3+ as judged by clinical evaluation. Also under the same conditions, N-Ac-Tyr-Pro-Phe-Phe-NH2 (SEQ ID NO: 23) powder provided an analgesic effect of about 3+ as judged by clinical evaluation. Repeated application of the tetrapeptide derivatives provided 4+ efficacy as judged by clinical evaluation.

The next test deals with headache. Put plainly: Example 44: analgesic effect on headache, topical. The source says: A subject, experienced a headache that began on the right temporofrontal area. Within about a half hour the headache pain area expanded to include the left temporofrontal area and both orbital areas. The intensity of pain increased simultaneously to a degree that caused them to remove themself from their sedentary occupation. Available to them was a composition containing 1% (w/v) of N-Pg-Tyr-Pro-Phe-Phe-NH2 (SEQ ID NO: 44) in WEP442, which they topically applied to all the above areas, keeping their eyes closed until the lids dried. Pain relief was detected after about 5 minutes, at which time a second application of the solution was made. Within another 5 minutes, pain relief was substantial, allowing them to return to their occupation.

Test [3] concerns chronic osteoarthritis of the knees. Put plainly: Example 53: comparative analgesic efficacy in topical treatment of knee osteoarthritis. The following applies: 1% (w/v) in WEP442, maintenance treatment twice daily. The method, then:
A subject with chronic osteoarthritis of the knees participated in this study. Each tetrapeptide derivative was dissolved in WEP442 to make a 1% (w/v) solution. Early in the morning, the solution was applied to a knee, which was immediately wrapped in plastic film from a roll 5 inches wide. The film wrap was left in place for about 7-8 hours, and then it was removed. Such application was repeated at bedtime and removed several hours later during the night. Each 1% (w/v) solution of tetrapeptide derivative was so applied for 2 days and efficacy was evaluated by the subject. No topical treatment was made during an ensuing interval of 2-3 days, at which time treatment with a 1% (w/v) solution of another derivative was initiated and carried out as described above. In total, six tetrapeptide derivatives were evaluated for analgesic efficacy.
The following tetrapeptide derivative was judged to provide 2+ to 3+ pain relief by clinical evaluation: N-Pa-Tyr-Pro-Phe-Phe-NH2(SEQ ID NO: 64).
After the above evaluation period, maintenance treatment was done with a composition containing 1% (w/v) of N-Pg-Tyr-Pro-Phe-Phe-NH2 (SEQ ID NO: 44) in WEP442 applied twice daily.

The subject of another test is pharyngitis. Put plainly: Example 64: analgesic effect on pharyngitis, oral. The procedure: A subject developed a respiratory tract infection, symptoms of which included coughing and pharyngitis. Swallowing of saliva was very painful for the subject. […] A solution containing 0.5% (w/v) of N-Pg-Tyr-Pro-Phe-Phe-NH2 (SEQ ID NO: 44) in a mixture of propylene glycol (10 parts by volume) and glycerol (90 parts by volume) was prepared. One teaspoonful of the solution was held in the posterior part of the mouth for about one minute and then swallowed. […] Such relief of painful swallowing lasted for about 3 hours. Repeated administrations provided the same results.

Setting [4] is: 0.5% (w/v) in propylene glycol/glycerol, oral.

In the case of `CC(=O)N[C@@H](Cc1ccc(O)cc1)C(=O)N1CCC[C@H]1C(=O)N[C@@H](Cc1ccccc1)C(=O)N[C@@H](Cc1ccccc1)C(N)=O` [N-Ac-Tyr-Pro-Phe-Phe-NH2], the “erythema, swelling and pain” value with hallux valgus (bunion) (1% (w/v) in WEP442, morning after second application) was “the erythema was gone, the swelling had subsided, and there was no pain”. In addition, the duration of improvement in the test with hallux valgus (bunion) (1% (w/v) in WEP442, topical) was determined as 2 weeks. In addition, the pain relief entry is “all pain was gone” in the test on hallux valgus (bunion) (1% (w/v) in WEP442, topical); “complete relief of pain” in the test with knee pain; “completely interrupted all pain” in the test on severe frontal headaches (1% (w/v) in WEP442, topical at onset); “completely relieved the pain” in the test on pain at injection sites; “Complete relief of pain and other symptoms” in test [1] (1% (w/v) in WEP442, topical at onset of headaches); “rapidly and completely alleviated pain” in the test on TMJ syndrome pain. The “time to pain relief” value in the test with hallux valgus (bunion) (1% (w/v) in WEP442, topical) was at most 15 min; with knee pain, “less than 1 minute”; in the test on severe frontal headaches (1% (w/v) in WEP442, topical), 3 to 4 min; in the test with pain at injection sites, at most 1 min; in [1] (1% (w/v) in WEP442, topical), 2 to 3 min. In addition, the recurrence entry in the test on knee pain was “pain free the next morning and thereafter”; in the test with pain at injection sites it was “did not return”. The period without headaches in [1] (1% (w/v) in WEP442, topical, over the next two months) is reported as at least 5 week. In addition, the “duration of pain relief” value in the test on TMJ syndrome pain was “more than 8 hours”.

Turning to “N-Pg-Tyr-Pro-Phe-Phe-NH2 ([pGlu]YPFF-NH2; SMILES NC(=O)[C@H](Cc1ccccc1)NC(=O)[C@H](Cc1ccccc1)NC(=O)[C@@H]1CCCN1C(=O)[C@H](Cc1ccc(O)cc1)NC(=O)[C@@H]1CCC(=O)N1)”, in test [2], the “analgesic effect by clinical evaluation” value was 4+ (4+ (90-100%): complete relief or eradication of pain for more than 4 hours), the “duration of analgesic effect” value is “about 2 hours”, the pain relief result is reported as “the pain disappeared” and the “time to pain relief” value is at most 20 min. For the same compound, the pain relief result in the test with headache (1% (w/v) in WEP442, after second application) is on record as “Total relief of pain”. The “time to detected pain relief” value with headache (1% (w/v) in WEP442, first topical application) is “about 5 minutes”. Further, in the test on headache (1% (w/v) in WEP442, topical), the recurrence entry is reported as “no recurrence of pain”. In addition, the “knee pain compared to several months earlier” value in [3] is “the knee pain was substantially less”. Besides, the “relief of painful swallowing” value in the test with pharyngitis (0.5% (w/v) in propylene glycol/glycerol 10:90, one teaspoonful held in mouth and swallowed) is “swallowing of liquids and semi-solid food could be done without pharyngeal pain”. Further, in the test on pharyngitis (setting [4]), the duration of relief entry is “about 3 hours” and the time to relief was at most 10 min.
